Experiments:
rat (cerebral ischemia) = experiment: In vivo activity in the rat: cerebral ischemia, EEG recovery; settings: 3 mg/kg i.v., 10' before test
Experimental: The model described by Kramer (Kramer W., Tuynmann J. A.; Brain Research 6, 686 (1967)) has been used.
Two electrodes for the bipolar recording of EEG (occipito-cervical and cerebellar area) were applied to rats, anaesthetized with N2 O (70%) and O2 (30%), after i.v. tubocurarine treatment. Ischemia was induced by increasing the intracranial pressure in cisterna magna with artificial C.S.F. and for the duration of 1 minute. EEG was recorded 3' before ischemia, during the first 6 minutes of the recirculation and up to 30' after ischemia. The time for a complete EEG recovering was measured.
The compounds were administered i.v. 10' before test.

rat (cardiac ischemia) = experiment: In vivo activity in the rat: cardiac ischemia and reperfusion by ligation of the left coronary artery; settings: iv, 3 mg/kg, 10' to 30' before ligation
Source text: It has been used a cardiac ischemia and reperfusion model, on the anaesthetized rat, by ligation of the left coronary artery as described by C. […] In said model, after the ischemic state induced by the coronary ligation, the reperfusion of the cardiac tissue follows the release of the ligation itself. In said situation tachycardias, extrasystoles ventricular fibrillations are observed, followed, in most cases, by the animal's death.
This applies in both situation: hypoxia and reperfusion.

Work on `COC(=O)[C@H](N)CCNNC(=N)N` [4a(R), methyl-(R)-2-amino-4-guanidylamino-butyrrate] yielded an EEG recovery time (rat (cerebral ischemia)) of 58 ± 7 s.
`COC(=O)[C@H](N)[C@H]1CC[C@@H](NC(=N)N)CC1` [7a(R), Methyl (R) (1',4' cis or trans)-2-amino-2-(4'-guanidinocyclohexyl)-acetate] gave an EEG recovery time (rat (cerebral ischemia)) of 49 ± 6 s.
In the case of `CN=C(N)NCCC[C@@H](N)C(=O)OC` [2b(R), (R)-N^G -methyl-arginine methylester], the “% effects (with respect to controls in the same situation) on death-rate” value (rat (cardiac ischemia)) is reported as 10%, the “% effects (with respect to controls in the same situation) on fibrillations” value (rat (cardiac ischemia)) is reported as 50% and the “% effects (with respect to controls in the same situation) on tachycardia V.” value (rat (cardiac ischemia)) is reported as 60%.
In the case of `COC(=O)[C@H](N)c1ccc(NC2=NCCN2)cc1` (single isomer, unassigned) [10a(R), Methyl (R) or (S) 2-amino-2-(4'-imidazolinyl-amino-phenilacetate], the EEG recovery time (rat (cerebral ischemia)) is reported as 62 ± 8 s.
Work on `COC(=O)[C@@H](N)CCCNC(=N)N` [L.A.M., Larginine methylester, reference compound] yielded an EEG recovery time (rat (cerebral ischemia)) of 61 ± 8 s.
`COC(=O)[C@H](N)CCCNC(=N)N` [D.A.M., Darginine methylester, reference compound] showed an EEG recovery time (rat (cerebral ischemia)) of 45 ± 6 s.
`COC(=O)[C@@H](N)[C@H]1CC[C@@H](NC(=N)N)CC1` [7a(S), Methyl (S) (1',4' cis or trans)-2-amino-2-(4'-guanidinocyclohexyl)-acetate] showed an EEG recovery time (rat (cerebral ischemia)) of 43 ± 5 s.

From US4789681A, “Cytoprotective guanidine derivatives useful in ischemic diseases” (Italfarmaco S.p.A., priority 1985, dated 1988)
